# Where two headings read alike, the source gives them in different places.
# Legend:
# R17 bacteriophage [1] = assay: R17 bacteriophage inactivation assay, varying compound concentration; format: cell-based; details: 32 μM; starting titer approx. 7.5 logs; 1 minute irradiation
# Protocol: An r-17 bacteriophage assay was used in this example to predict pathogen inactivation efficiency and to determine nucleic acid binding of the photoreactive binding compounds of the present invention. In the r-17 assay, the bacteriophage was placed in a solution with each compound tested and was then irradiated. The ability of the phage to subsequently infect bacteria and inhibit their growth was measured. The bacteriophage was selected for its relatively accessible nucleic acid such that the culture growth inhibition would accurately reflect nucleic acid damage by the test compounds. The bacteriophage assay for nucleic acid binding to test compounds offers a safe and inexpensive procedure to identify compounds likely to display efficient pathogen inactivation.
# The R17 was grown up in Hfr 3000 bacteria, approximate titer 5×10^11. (R17 and Hfr 3000 were obtained from American Tissue Culture Collection (ATCC), Washington, D.C.) The R17 phage stock was added to a solution of 15% fetal bovine serum in Dulbecco's Modified Eagles Medium (DMEM) to a final phage concentration of 10^9/mL. An aliquot (0.5 mL) was transferred to a 1.5 mL snap-top polyethylene tube. An aliquot (0.004-0.040 mL) of the test compound stock solution prepared in water, ethanol or dimethylsulfoxide at 0.80-8.0 mM was added to the tube. Compounds were tested at concentrations between 4 μM and 320 μM. […] The tubes were placed in a light device as described in EXAMPLE 1 and irradiated for between 1 and 10 minutes. Sterile 13 mL dilution tubes were prepared; each test compound required one tube with 0.4 mL of Luria broth (LB) and five tubes containing 0.5 mL of LB broth. To make the dilutions, a 0.100 mL aliquot of the irradiated solution of phage and test compound was added to the first dilution tube of 0.4 mL of media then 0.020 mL of this solution was added to the second tube of 0.5 mL medium (1:25). The second solution was then diluted serially (1:25) into the remaining tubes. To each diluted sample was added 0.050 mL of Hfr 3000 bacteria cultured overnight and 3 mL of molten LB top agar and the mixed materials were poured onto LB broth plates. After the top agar hardened, the plates were incubated at 37° C. overnight. The plaque forming units were then counted the following morning and the titer of the phage remaining after phototreatment was calculated based on the dilution factors.
# The following controls were run: the “phage only” in which phage was not treated with test compound and not irradiated (listed as “starting titer” in the tables below); the “UV only” in which the phage was irradiated in the absence of test compound; and the “dark” control in which the phage/test compound solution was not irradiated before it was diluted and plated.
# Pseudomonas = assay: Bacterial inactivation, colony forming units; format: cell-based; details: 16 μM; 5 J/cm^2 irradiation; starting titer 6.5 logs
# Protocol: The bacteria, a strain of Pseudomonas, was inoculated into LB with a sterile loop and grown overnight in a shaker at 37° C. Based on the approximation that one OD at 610 mn is equivalent to 5×10^8 colony forming units (cfu)/mL, a 1:10 dilution of the culture was measured on a spectrophotometer, (manufactured by Shimatsu). The bacterial culture was added to a solution of 15% fetal bovine serum in DMEM to a final bacteria concentration of approximately 10^6/mL. An aliquot (0.8 mL) was transferred to a 1.5 mL snap-top polyethylene tube. An aliquot (0.004-0.040 mL) of the test compound stock solution prepared in water, ethanol or dimethylsulfoxide at 0.80-8.0 mM was added to the tube. Compounds were tested at a concentration of 16 μM. The tubes were placed in a light device as described in EXAMPLE 1 and irradiated with 1.3 J/cm^2, 1.2 J/cm^2, and finally 2.5 J/cm^2, for a total of 5 J/cm^2. 150 μL were removed for testing after each pulse period. Sterile 13 mL dilution tubes were prepared; each test compound required one tube with 0.4 mL of LB broth and four tubes containing 0.5 mL of LB broth. […] The colony forming units were then counted the following morning and the titer of the phage remaining after phototreatment was calculated based on the dilution factors. […]
# [2] = test system: Salmonella typhimurium tester strains; assay: Ames Salmonella dark mutagenicity test, overall assessment; format: cell-based; details: two-fold or greater increase in revertants above background and dose dependence
# Protocol: A brief description for each procedure is given here. […] TA97a, TA98, TA1537 and TA1538 are frameshift tester strains. TA100 and TA102 are base-substitution tester strains.
# This served as the background controls.
# For all experiments, the pre-incubation procedure was used.
# R17 bacteriophage [3] = assay: R17 bacteriophage inactivation at constant concentration, varying doses of UV light; format: cell-based; details: 1.0-3.0 J/cm^2, FIGS. 11-17
# Protocol: Compounds of the present invention were also tested at a constant concentration for varying doses of UV light. Three sets of 1.5 mL tubes were prepared containing 0.6mL aliquots of R17 in DMEM (prepared as described above). The compound tested was added at the desired concentration and the samples were vortexed. The samples were then irradiated at intervals of 1.0 J/cm^2, until 3.0 J/cm^2 was reached. Between each 1.0 J/cm^2 interval, 100 μL was removed from each sample and placed in the first corresponding dilution tube, then five sequential dilutions were performed for each compound tested, at all 3 irradiation doses, as described above in this example.
# Then 50 μL of Hfr 3000 bacteria was added to each tube, 3 mL of top agar was added and the tube contents were vortexed The contents of each tube was poured into its own LB plate and the plates were incubated overnight at 37° C. Plaques were counted by visual inspection the following morning.
# p-selectin (GMP140) = assay: GMP-140 (p-selectin) expression on platelets, flow cytometry with CD62; format: cell-based, human; details: 100 μM compound, 5 Joules/cm^2, 5 days storage; FIGS. 21C-24C
# Protocol: To measure the effects of the present compounds and methods of decontamination on platelet function using these four indicators, four samples were prepared for each compound tested, two control samples and two containing compound. Three units of human platelets were obtained from the Sacramento Blood Center, Sacramento, Calif. These were each transferred under sterile conditions to 50 ml centrifuge tubes, then aliquots of each unit were transferred into a second set of 50 ml sterile centrifuge tubes. To each centrifuge tube containing platelet concentrate (PC), an aliquot of compound stock was added to reach a final concentration of 100 μM of compound. […] The samples were pipetted gently up and down to mix. Then aliquots (either 3 ml or 8 ml) of each sample was transferred to two sterile Teflon™ Medi-bags™ (American Fluoroseal Co., Silver Springs, Md.) (presently owned by The West Company, Lionville, Pa.). Samples were treated in one of two different sized bags, having either 3 ml or 8 ml capacity. […] For each compound tested, two control samples without compound were prepared by again removing aliquots of platelet concentrate (17 ml if using an 8 ml bag, […] if using a 3 ml bag) from the same one of the first set of 50 ml centrifuge tubes from which the compound sample was drawn, and dividing into Medibags, as before. One of each pair of Medibags containing a compound, and one of each pair of control Medibags, were illuminated for 5 Joules/cm^2 on the device described in Example 1, above. Then all experimental and control Medibags were placed on a platelet shaker for storage for 5 days. The same experiments were repeated several times to obtain more statistically meaningful data, as represented by “n”, the number of data points represented, in the graphs of FIGS. 21-24, discussed below.
# platelets = assay: Platelet count, Sysmex cell counter; format: cell-based, human; details: 100 μM compound, 5 Joules/cm^2, Day 5; FIGS. 21A-24A
# Protocol: Samples were diluted 1:3 in blood bank saline.
# mouse reticulocytes = details: increased dose levels in male Balb/c mice
# Protocol: Male Balb/c mice were then injected with 0.1 ml of a compound solution via the tail vein. At least 3 mice were injected per dose level. Saline only was used as a negative control. For a positive control, cyclophosphamide (cycloPP) was administered at a dose of 30 mg/kg. In the experimental group, the injections were repeated once per day for four days. In the positive control group, the sample was administered only once, on day three. On day 5, several microliters of blood were withdrawn from each subject and smeared on a glass slide. Cells were fixed in absolute methanol and stored in a slide rack.
# For analysis, cells were stained with acridine orange and visualized under a fluorescence microscope by counting: (i) the number of reticulocytes per 5000 erythrocytes; and (ii) the number of micronucleated reticulocytes per 1000 reticulocytes. Reticulocytes were distinguished by their red fluorescence due to the presence of RNA. Micronuclei were distinguished by their green fluorescence due to the presence of DNA. The percentage of reticulocytes (%PCE) was then calculated. A decrease in the frequency of […] in the percentage of reticulocytes, is an indication of bone marrow toxicity. The percentage of reticulocytes with micronuclei (%PCE with MN) was also calculated. An increase in %PCE with MN is a measure of clastogenicity.
# After initial results were determined, the experiment was repeated using increased dose levels, until: (i) Micronucleus formation was seen; or (ii) Bone marrow toxicity was observed; or (iii) The lethal dose was reached; or (iv) A dose of 5 g/kg was administered.
# HIV-1 = details: 1 minute irradiation, starting titer approximately 5.4 logs (Table 11)
# [4] = HPLC retention time as rough estimate of hydrophobicity; format: physicochemical; details: C-18 reversed phase, methanol/KH2PO4 gradient
# Protocol: Adsorption data were then obtained by HPLC analysis on the test and control samples. Specifically, a 200 μl sample volume of PC was removed from each tube following the incubation period (special care being taken to ensure that no adsorbent particles were removed with the test samples). […] The addition of methanol lyses platelets and precipitates plasma proteins so that psoralen contained within the platelets is not excluded by the assay.
# Since each of the psoralens were analyzed using the same type of BPLC assay, one can use the psoralens' relative retention times to rank them according to increasing hydrophobicity. […] Strong interactions with cells or plasma proteins could compete with adsorption, thereby interfering with resin binding.
# [5] = Adsorption capacity of Amberlite adsorbents for Psoralens A, B and C from PC (Table V); format: physicochemical; details: batch adsorption
# Protocol: Stock solutions (15 mM) of each psoralen ([…], and C) were prepared in DMSO. […] Thereafter, control samples and test samples were prepared for HPLC analysis. Test samples were prepared by adding a 3.0 mL aliquot of each dilution to a 5 mL polypropylene tube containing 0.1 g of adsorbent; control samples were prepared in an analogous manner with the exception that the adsorbent was omitted. The test and control samples were then incubated for 6 hours at 22° C. by rotating gently on a mixer (Barnstead, Thermolyne Model 400110). […] Adsorption data were then obtained by HPLC analysis on the test and control samples. Specifically, a 200 μl sample volume of PC was removed from each tube following the incubation period (special care being taken to ensure that no adsorbent particles were removed with the test samples). […] The addition of methanol lyses platelets and precipitates plasma proteins so that psoralen contained within the platelets is not excluded by the assay. […] The slopes of the calibration curves were determined by linear least square method (y-intercept constrained to zero). […] The amount (μmoles) of psoralen which the adsorbent had removed from the PC was calculated [V(Co-Cf)]. […] As previously discussed, the slope of the adsorbent isotherm, K (L/g), is termed the adsorption constant and can be determined by a linear regression of the adsorption data.
compound,measurement,setting,value
"COc1c2occc2cc2ccc(=O)oc12 [Compound 8-MOP, 8-Methoxypsoralen, reference compound]",R17 log kill (32 μM),R17 bacteriophage [1],0 log
same,log kill of Pseudomonas,Pseudomonas,1.9 logs
same,mutagenic response in the Ames assay (in words),[2],weak base-substitution mutagen in TA102 at 500 μg/plate
"Cc1cc(=O)oc2c(C)c3oc(CNCCCCN)c(C)c3cc12 [Compound 17, 5′-(6-amino-2-aza)hexyl-4,4′,8-trimethylpsoralen]",R17 inactivation efficiency compared with AMT (in words),R17 bacteriophage [3],more efficient at inactivating R17 than was AMT
same,"GMP-140 expression, treated sample (PCD) against day 5 untreated control (in words)",p-selectin (GMP140),little or no difference
same,"platelet count, treated against controls (in words)",platelets,higher platelet count than samples treated with light alone
same,bone marrow toxicity and micronucleus formation on dose escalation (in words),mouse reticulocytes,the acutely lethal dose was reached before there were any signs of bone marrow toxicity or micronucleus formation
same,HIV Log Kill,HIV-1; 16 μM,1.2 log
same,HIV Log Kill,HIV-1; 32 μM,2.9 log
same,HIV Log Kill,HIV-1; 64 μM,3.4 log
"CC[N+](CC)(CC)Cc1c(C)oc2c(C)c3oc(=O)cc(C)c3cc12 [Psoralen A, 4′-(triethylamino) methyl-4,5′,8-trimethylpsoralen]",HPLC retention time (rough estimate of hydrophobicity),[4],7.8 min
"COc1c2occc2c(Br)c2ccc(=O)oc12 [Psoralen B, 5-bromo-8-methoxypsoralen]",HPLC retention time (rough estimate of hydrophobicity),[4],20.0 min
"CCN(CC)CCCOc1c2occc2c(Br)c2ccc(=O)oc12 [Psoralen C, 5-bromo-8-(diethylaminopropyloxy)-psoralen]",ease of removal from PC (in words),[5],most easily removed from PC
same,HPLC retention time (rough estimate of hydrophobicity),[4],12.0 min

# From patent publication US6544727B1, “Methods and devices for the removal of psoralens from blood products” (Cerus Corporation, priority 1995, dated 2003)
